Experiment [1] has as its system human TF1 cells that express H4R. Kind of experiment: TF1 cell proliferation assay (GM-CSF promoted). The class given is cell-based. The following applies: Homo sapiens, TF-1, 72 h; 10 μM, 3 days, three separate assays (n=3). As for the experimental part:
Tritoqualine was tested on a cell proliferation assay using human TF1 cells that express H4R.
TF1 cell proliferation is promoted using granulocyte/macrophage colony-stimulating factor (GM-CSF). In this cell proliferation model H4R agonists inhibit cell proliferation. Clobenpropit (CB), a known H4R agonist at a dose of 10^−5M (10 μM) was used as a known cell proliferation inhibition control. […] Each experiment used 100,000 TF1 cells/mL incubated for three days with GM-CSF (10 ng/mL). After addition of TRQ in the range of 10^−5M (10 μM) to 10^−7 M (0.1 μM), and incubation for 3 days, cell proliferation was assessed and compared to that of 10 μM CB.

In experiment [2] the test system is Mouse medullary cells C57B1/6 expressing H4R. Kind of experiment: Proliferation of Colony Forming Cells (CFC) in semi-solid media. The format is cell-based. The following applies: 10 μM, 7 days. As for the experimental part: Using the assay described in Example 15, above, the effect of TRQ or CB on cells expressing H4R was tested. Mouse medullary cells C57B1/6 expressing H4R (50,000 cells/Petri dish) were incubated in a semi-solid media with haematopoietic growth factors (IL-3: 10 ng/ml) for 7 days with TRQ or CB.
Using the assay described in Example 15, above, the effect of TRQ or CB on cells expressing H4R was tested. Mouse medullary cells C57B1/6 expressing H4R (50,000 cells/Petri dish) were incubated in a semi-solid media with haematopoietic growth factors (IL-3: 10 ng/ml) for 7 days with a TRQ (racemic mixture of RR and SS isomers at 1 μM and 10 μM concentration); TRQ isomer E1 (10 μM concentration); TRQ isomer E2 (10 μM concentration) and CB (10 μM concentration).

The test system is the same in experiment [3]. Kind of experiment: Percentage of cells at G0/G1 phase, TRQ racemate and enantiomers with and without CB (Example 21). The class given is cell-based. The following applies: 10 μM, compared to control (GF only). As for the experimental part: This experiment was conducted at two concentrations for all TRQ molecules (10 μM and 1 μM) in the presence and absence of CB (10 μM).
Using the assay described in Example 15, above, the effect of TRQ or CB on cells expressing H4R was tested. Mouse medullary cells C57B1/6 expressing H4R (50,000 cells/Petri dish) were incubated in a semi-solid media with haematopoietic growth factors such as IL-3 (10 ng/ml) for 7 days with a TRQ (racemic mixture of RR and SS isomers at 1 μM and 10 μM concentration); purified TRQ isomer E1 (10 μM and 1 μM concentration); purified TRQ isomer E2 (10 μM and 1 μM concentration) and CB (10 μM concentration). […] Similar results were shown with the purified TRQ isomers. In each experiment cells were incubated in the presence of growth factors (GF, FIG. 15).

Experiment [4] has as its system ckit positive hematopoietic progenitor cells. Kind of experiment: ckit receptor expression on hematopoietic progenitor cells. The conditions noted are these: 10 μM. The format is cell-based. The source says:
In FIG. 16 the reference to CB-5, E1-5, and E2-5 is the same as above. CKit is a receptor on the surface of hematopoetic cells. Quantifying the ckit receptor is a measure of the differentiation from the progenitor state to the hematopoetic cell state.

Experiment [5] addresses T1, H4R (Mus musculus, UniProt Q91ZY2).
T1 construct: endogenous in cells; host or cells: freshly sorted c-kit+ haematopoietic progenitor cells
T1 sequence (Q91ZY2 1-391): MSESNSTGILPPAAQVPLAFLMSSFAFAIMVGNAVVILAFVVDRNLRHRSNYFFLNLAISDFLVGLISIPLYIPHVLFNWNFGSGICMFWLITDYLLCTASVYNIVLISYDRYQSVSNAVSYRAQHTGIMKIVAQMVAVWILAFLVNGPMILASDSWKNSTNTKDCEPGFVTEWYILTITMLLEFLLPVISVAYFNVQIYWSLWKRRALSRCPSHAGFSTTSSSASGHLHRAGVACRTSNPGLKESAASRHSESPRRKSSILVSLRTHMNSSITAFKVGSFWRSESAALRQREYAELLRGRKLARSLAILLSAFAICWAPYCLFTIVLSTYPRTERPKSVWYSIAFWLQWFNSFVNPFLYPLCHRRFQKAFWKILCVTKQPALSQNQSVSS
The experiment is described as follows: Cell cycle status after H4R silencing with siRNA. The following applies: 10 μM; H4R siRNA transfected c-kit+ cells. The class given is cell-based. As for the experimental part: H4R silencing was performed with freshly sorted c-kit^+ cells. For transfection, 3 μl of HiPerFect reagent (Qiagen; Courtaboeuf, France) and 4 μl ([…]) of human and 8 μl (80 pmol) of murine H4R siRNA, scrambled FITC-labeled or unconjugated control siRNAs (all from Santa Cruz Biotechnology) were incubated in 50 μl x-vivo medium (Cambrex; East Rutherford, N.J.) for 20 min at room temperature. The mixture was then added to 50 μl of cell suspension at a final concentration of 10^6 cells/ml and incubated for 20 h, when transfection efficiency was verified with scrambled FITC-conjugated siRNA. Cells were then centrifuged and resuspended at a concentration of 10^5 cells/ml in StemSpan medium with growth factor cocktail. The extinction of H4R protein expression was ascertained by FACS analysis after 24 h. After 3 days of culture with or without tritoqualine (10 μM) or Clobenpropit (10 μM) cells were counted and their viability was assessed by trypan blue exclusion. The cell cycle status was assessed after an overnight incubation.

Experiment [6] concerns hematopoietic progenitor cells. Kind of experiment: CFU of hematopoietic progenitor cells in the presence of Ara-C. The class given is cell-based. The source says:
Ara-C is a chemotherapeutic agent that kills cancel cells (or actively dividing cells).

Experiment [7] is described as follows: Reintroduction of causal food allergen in food allergy patients. The class given is in vivo, human. The following applies: baseline patients treated with one drug alone. The source says:
Allergens tested came from either […], or ALLERBIO.
The direct test with the Nutella® was strongly positive for allergy. This patient was hospitalized in two occasions for the same dramatic allergic reaction to Nutella® spread. Furthermore, the patient presented allergies to pneumoallergens.
Continuation of the above treatment for over 8 months afforded reversal of allergic and digestive symptoms due to food allergy.
The patient under study had survived two cases of anaphylactic shock due to ingestion of shrimps. […] Later the patient was able to ingest five shrimps without any local signs and no global reaction.
Baseline patients had signs of food allergies and the food allergy symptoms were not adequately managed with an H1 antagonist and cromoglycate. A group of 15 patients presenting signs of food allergies is tested with allergens such as the following: peanut, milk, tomato, potato, flour of wheat, soybean, fish, and shrimp. Allergens tested came from either […], or ALLERBIO.
All patients had history of hospitalization and reactions such as Quincke's edema and asthma crisis. Most of the causal allergens were peanut (six patients), egg (four patients) and soybean (five patients) of them (with other several positive food allergens at different degrees of reaction). […]

As a reminder, the inhibition is the change of the read-out against control, counted positive when it falls.

“Also recorded” adds a separate entry of the source.

As to `NC(=NCc1ccc(Cl)cc1)SCCCc1cnc[nH]1` [CB, N′-[(4-chlorophenyl)methyl]-1-[3-(3H-imidazol-4-yl)propylthio]formamidine], the inhibition at 10 µM in experiment [1] worked out at 23%. In experiment [2] (Example 16, IL-3 10 ng/ml), the “inhibition of proliferation of CFC” value was “inhibits the proliferation of CFC”. The “inhibitory activity of cell proliferation (CFC)” value in experiment [2] (Example 20) is on record as “inhibits the proliferation of CFC”. The “percentage of cells at the G0/G1 phase / inhibitory activity of cell proliferation” value in experiment [3] was “increases the percentage of cells at the G0/G1 phase; also recorded: slightly better inhibitory activity of cell proliferation compared to that of Racemic TRQ”. Also, the ckit expression result in experiment [4] was “inhibits of ckit expression”. Besides, the “activity inhibiting the cell cycle at the G0/G1 phase after H4R siRNA” value in experiment [5] is listed as “reversed”. Moreover, in experiment [6], the “protection of cells / cell CFU in the presence of Ara-C” value is on record as “provides protection to the cells”.

Turning to `CC(C)(O)c1ccccc1CC[C@@H](SCC1(CC(=O)O)CC1)c1cccc(/C=C/c2ccc3ccc(Cl)cc3n2)c1` [Montelukast®], the “management of food allergy symptoms with the single drug” value in experiment [7] was “did not yield satisfactory management”.

These data come from patent publication US8207188B2, “Treatment of diseases modulated by a H4 receptor agonist” (priority 2006, dated 2012).
